From PMC10198977, “Computational design of dynamic receptor—peptide signaling complexes applied to chemotaxis” (Nature Communications, 2023)
No end group written: not given here.

What was measured:
Type in all cases: cell-based
WT CXCR4 = WT CXCR4 (Homo sapiens, UniProt P61073); assay: Gαi BRET of peptides on WT CXCR4; conditions: for Gi BRET (dEC50): vs WT:WT, WT receptor
Procedure: (§1) Lyophilized peptides were stored at −80 °C and resuspended in assay buffer on the day of the experiment.
(§2) 40,000 HEK 293T cells were transiently transfected with WT or variant HA3-CXCR4, Gαi1−91-Rluc8, Gβ3-WT, and Gγ9-GFP2 in pcDNA3.1(+) at a ratio of 10:1:10:5 respectively. Cells were first seeded in 100 µL DMEM 10% FBS in a poly-lysine coated, white-walled, white-bottom 96-well plate. Directly after cell loading, 50 µL of the mixture containing Lipofectamine 2000 and the DNA was added on top of the cells. The cells were then left to incubate at 37 °C, 5% CO2, and 95% relative humidity for 20 h, after which, 150 µL media was refreshed. Cells were assayed 48 h post-transfection. Cells were washed with 150 µL PBS, then 40 µL BRET buffer (HBSS, 0.2% Glucose) was added to each well. Coelenterazine 400a was first added at a final concentration of 2.5 µM and BRET ratios were measured once using Mithras[2] LB 943 plate reader. After the first measurement, 40 µL of a 3x concentrated agonist solution was added to each well, and BRET ratios were measured for another 30 min using a Mithras[2] LB 943 plate reader. Mock-transfected controls were subtracted from the data. Maximum values averaged from 3 replicates were then plotted against selected concentrations and fitted to a sigmoidal curve using GraphPad Prism v9.

Csel2 = assay: Gαi BRET of peptides on Csel2; conditions: for Gi BRET (dEC50): vs WT:WT, Csel2 receptor
Procedure: as §1, §2

[1] = system: WT CXCR4 transduced primary human T cells; assay: Boyden chamber migration of T cells transduced with WT CXCR4; parameters: key to Migration Index: migrated cells toward chemokine / migrated cells without chemoattractant; conditions: for Migration Index: 100 nM full-length chemokine vs no chemoattractant, peak over 8 h, WT receptor
Procedure: (§3) Full-length chemokine purification
(§4) CXCL12 and variants expressed in pMS211 (pET21a-based) construct and purified as previously described. N-terminal His-tag and leader sequence cleaved with enterokinase to produce a final product with the correct N-terminal sequence. The final lyophilized protein was resuspended at 1 mg/ml in 0.1% BSA. Aliquots were snap frozen and stored at −80 °C.
(§5) Generation of human T cells expressing CXCR4 WT or variants
(§6) Peripheral blood mononuclear cells (PBMCs) were isolated from buffy coats by density gradient centrifugation (Lymphoprep, StemCell ref: 07851) and activated on plates coated with anti-CD3 ([…], Biolegend, ref: 317347, clone: OKT3) and anti-CD28 ([…], Biolegend, ref: 302934, clone: CD28.2) antibodies in T cell media (RPMI 10% FBS, 2 mM L-Glutamine, 1% Penicillin-Streptomycin) with IL-15 and IL-7 (Miltenyi Biotec, 10 ng/ml each, ref: 130-095-362 and ref: 130-095-765 respectively). The day before transduction, non-cell tissue culture treated 24-well plate (Greiner Bio-One, ref: 662102) was coated with retronectin (Takara Bio, ref: T100B) in PBS (7 μg/ml, 1 ml per well), and incubated overnight at 4 °C. Three days after activation, retronectin was removed and the plate was blocked with RPMI 10% FBS for 15 min at 37 °C. Then, media was removed and retroviral supernatant was centrifuged at 2000 × g, 1 h, 32 °C on retronectin-coated plates. Retroviral supernatant was gently removed and activated T cell suspension at 0.15 E^6 cells/ml was added, and centrifuged at 1000 × g, 10 min, 21 °C. Cells were incubated at 37 °C, 5% CO2, and 95% relative humidity for 3 days. After 48–72 h of transduction, T cells were harvested and further expanded in T cell media containing IL-7 and IL-15. Transduced T cells were positively selected with a PE selection kit (EasySep, ref: 17684) and an anti-HA PE-conjugated antibody (Biolegend, ref: 901518, clone: 16B12) at a 1:50 dilution to enrich transduced T cells. Enrichment of surface expression in PE-selected cells was confirmed by flow cytometry using a BD FACS LSR II cytometer (BD Biosciences) and analyzed with FlowJo software (BD Biosciences).
(§7) T cells transduced and selected for expression of CXCR4 variants from 3 to 6 donors were stained with 1 µM Vybrant DiO cell-labeling solution (Thermo, ref: V22886) in serum-free RPMI 1640 + GlutaMax. 40,000 cells in 75 µL were seeded in each well of 96-well Boyden chambers with 5.0 µm pores (Corning, ref: 3388)[44]. Reservoirs were filled with 200 µL serum-free RPMI 1640 + GlutaMax without chemoattractant or supplemented with 100 nM chemokine. The bottom of the attractant reservoir was imaged for migrated cells for 8 h with a Cytation 5 BioSpa (Biotek) at 37 °C with 5% CO2. Fluorescent spots were counted over time and compared to the no-chemoattractant control to calculate the migration index (# migrated cells towards chemoattractant / # migrated cells in absence of chemoattractant). The peak migration indices averaged between 3 technical replicates for each transduced donor per chemoattractant concentration were plotted.

[2] = system: Csel2 transduced primary human T cells; assay: Boyden chamber migration of T cells transduced with Csel2; parameters: key: migrated cells toward chemokine / migrated cells without chemoattractant; conditions: 100 nM full-length chemokine vs no chemoattractant, peak over 8 h
Procedure: as §3, §4, §5, §6, §7

[3] = system: Csedy transduced primary human T cells; assay: Boyden chamber migration of T cells transduced with Csedy; parameters: key: migrated cells toward chemokine / migrated cells without chemoattractant; conditions: 100 nM full-length chemokine vs no chemoattractant, peak over 8 h
Procedure: as §3, §4, §5, §6, §7

[4] = system: Cdyn transduced primary human T cells; assay: Boyden chamber migration of T cells transduced with Cdyn; conditions: 100 nM full-length chemokine vs no chemoattractant, peak over 8 h
Procedure: as §3, §4, §5, §6, §7

Chain of WT CXCR4 (P61073 whole entry): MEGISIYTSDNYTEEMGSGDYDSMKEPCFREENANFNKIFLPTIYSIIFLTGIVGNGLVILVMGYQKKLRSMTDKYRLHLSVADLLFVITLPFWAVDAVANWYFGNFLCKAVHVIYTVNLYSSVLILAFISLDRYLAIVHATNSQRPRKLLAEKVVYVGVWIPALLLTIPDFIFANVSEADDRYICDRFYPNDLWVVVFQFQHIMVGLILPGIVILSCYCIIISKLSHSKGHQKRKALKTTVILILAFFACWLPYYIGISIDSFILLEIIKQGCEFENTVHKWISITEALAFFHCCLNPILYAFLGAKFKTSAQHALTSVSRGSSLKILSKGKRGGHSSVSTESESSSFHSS

Substance | Migration Index ([1]; donor/replicate 1) | Migration Index ([1]; donor/replicate 2) | Migration Index ([1]; donor/replicate 3) | Migration Index ([2]; donor/replicate 1) | Migration Index ([2]; donor/replicate 2) | Migration Index ([2]; donor/replicate 3) | Migration Index ([2]; donor/replicate 4) | Migration Index ([2]; donor/replicate 5) | Migration Index ([3]; donor/replicate 1) | Migration Index ([3]; donor/replicate 2) | Migration Index ([3]; donor/replicate 3) | Migration Index ([3]; donor/replicate 4) | Migration Index ([1]; donor/replicate 4) | Migration Index ([4]; donor/replicate 1) | Migration Index ([4]; donor/replicate 2) | Migration Index ([4]; donor/replicate 3) | other results
Y7L: CXCL12(1-17) peptide variant, Leu at P7 (KPVSLSLRCPCRFFESH-NH2; cysteine pairing not given here) |  |  |  |  |  |  |  |  |  |  |  |  |  |  |  |  | decrease in overall Gαi response (WT CXCR4; WT receptor (Fig. 3a)): 18%; Gi BRET (dEC50) (WT CXCR4; replicate 1): 0.3425; Gi BRET (dEC50) (WT CXCR4; replicate 2): 0.267; Gi BRET (dEC50) (WT CXCR4; replicate 3): 0.275; Gαi efficacy increase (Csel2; Csel2 receptor (Fig. 3a)): 30%; Gi BRET (dEC50) (Csel2; replicate 1): -0.2255; Gi BRET (dEC50) (Csel2; replicate 2): -0.0185; Gi BRET (dEC50) (Csel2; replicate 3): -0.357
full-length V3Y-Y7L: full-length chemokine incorporating the designed N-terminal tail V3Y-Y7L | 2 | 2.852 | 2.992 | 2.938 | 2.133 | 3.389 | 4.146 | 3.781 | 4.478 | 3.833 | 3.752 | 3.787 |  |  |  |  | Migration Index ([2]; donor/replicate 6): 2.587
full-length V3Y: full-length chemokine incorporating the designed N-terminal tail V3Y | 2.294 | 2.226 | 3.315 |  |  |  |  |  |  |  |  |  | 2.878 | 4.176 | 5.188 | 4.028 | Migration Index ([1]; donor/replicate 5): 1.825
full-length WT: full-length WT CXCL12 chemokine [reference compound] | 1.882 | 1.899 | 1.407 | 3.533 | 2.962 | 2.156 | 3.087 | 2.058 | 4.556 | 4.556 | 4.738 | 4.774 | 0.96 | 3.5 | 2.758 | 2.302 | enhanced migration ([1]; 100 nM WT CXCL12, vs no-attractant controls, WT CXCR4): around 1.5 -fold
